# Molecular target: His-Tagged hOGA (human O-GlcNAcase) (Homo sapiens (Human), UniProt O60502)
# Experiment: Human O-GlcNAcase enzyme inhibition assay;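 note: reactions contained 20 nM His-tagged hOGA enzyme with 10 µM FL-GlcNAc substrate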
# Assay type: biochemical
# Conditions: OGA IC50 (M), FL-GlcNAc substrate, pH 6.5, activity classes defined in μM
# Procedure: Then, 20 nM of His-Tagged hOGA and 10 μM of FL-GlcNAc (Fluorescein mono-beta-D-(2-deoxy-2-N-acetyl) glucopyranoside; Marker Gene Technologies Inc, M1485) were added to the 384-well plate for a final volume of 20 μl.
# His-Tagged hOGA (human O-GlcNAcase), sequence (O60502 whole entry): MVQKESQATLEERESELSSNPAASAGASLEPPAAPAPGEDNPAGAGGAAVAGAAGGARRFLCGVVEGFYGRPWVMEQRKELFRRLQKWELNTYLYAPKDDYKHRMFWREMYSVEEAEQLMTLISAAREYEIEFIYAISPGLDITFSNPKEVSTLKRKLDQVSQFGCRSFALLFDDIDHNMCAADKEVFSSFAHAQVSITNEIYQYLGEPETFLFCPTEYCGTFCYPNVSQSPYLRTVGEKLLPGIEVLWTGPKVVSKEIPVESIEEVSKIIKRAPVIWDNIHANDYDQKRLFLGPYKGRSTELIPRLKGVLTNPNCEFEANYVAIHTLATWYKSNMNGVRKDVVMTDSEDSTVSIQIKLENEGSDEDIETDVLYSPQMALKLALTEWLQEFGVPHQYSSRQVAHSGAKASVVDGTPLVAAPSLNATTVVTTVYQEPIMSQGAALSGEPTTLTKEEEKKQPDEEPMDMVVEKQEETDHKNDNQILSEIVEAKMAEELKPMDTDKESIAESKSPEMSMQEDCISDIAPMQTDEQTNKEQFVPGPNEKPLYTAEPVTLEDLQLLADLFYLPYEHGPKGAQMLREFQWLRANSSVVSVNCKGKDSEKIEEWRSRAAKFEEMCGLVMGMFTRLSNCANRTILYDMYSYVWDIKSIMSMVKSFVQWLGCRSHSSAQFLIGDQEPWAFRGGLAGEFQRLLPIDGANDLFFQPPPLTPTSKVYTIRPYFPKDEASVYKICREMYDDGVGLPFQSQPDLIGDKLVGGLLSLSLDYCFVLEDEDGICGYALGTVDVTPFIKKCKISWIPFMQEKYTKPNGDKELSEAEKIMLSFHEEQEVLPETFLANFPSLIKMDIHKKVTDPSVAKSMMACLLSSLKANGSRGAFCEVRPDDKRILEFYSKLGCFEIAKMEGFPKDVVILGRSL
row,Structure (SMILES),IC50 [M]
1,"CC(O)c1nnc(N2CCN(C(C)c3ccc4nccnc4c3)CC2)s1 (racemic) [Example 115, 1-(5-(4-(1-(quinoxalin-6-yl)ethyl)piperazin-1-yl)-1,3,4-thiadiazol-2-yl)ethan-1-ol]",2e-07 to 1e-06
2,CC(c1ccc2nccnc2c1)N1CCC(n2cc(C(F)(F)F)cn2)CC1 (stereo not drawn) [Example 31],1e-06 to 1e-05

# Same assay, conditions: OGA enzyme inhibition assay; FL-GlcNAc substrate, pH 6.5; activity classes defined in μM; read-out: OGA IC50
row,IC50 [M],Structure (SMILES)
1,< 5e-08,"CC(c1ccc2c(c1)OCC2)N1CCN(c2nnc(CN)s2)CC1 (racemic) [Example 124, (5-(4-(1-(2,3-dihydrobenzofuran-6-yl)ethyl)piperazin-1-yl)-1,3,4-thiadiazol-2-yl)methanamine]"
2,< 5e-08,"CC(c1ccc2c(c1)OCC2)N1CCN(c2ncc(C3(O)CC3)cn2)CC1 (racemic) [Example 76, 1-(2-(4-(1-(2,3-dihydrobenzofuran-6-yl)ethyl)piperazin-1-yl)pyrimidin-5-yl)cyclopropan-1-ol]"
3,< 5e-08,"Cc1cnc(N2CCN(C(C)c3ccc4c(c3)OCC4)CC2)nc1 (racemic) [Example 90, 2-(4-(1-(2,3-dihydrobenzofuran-6-yl)ethyl)piperazin-1-yl)-5-methylpyrimidine]"
4,< 5e-08,"CC(c1ccc2c(c1)OCC2)N1CCN(c2ncc(C(=O)N(C)C)cn2)CC1 (racemic) [Example 100, 2-(4-(1-(2,3-dihydrobenzofuran-6-yl)ethyl)piperazin-1-yl)-N,N-dimethylpyrimidine-5-carboxamide]"
5,< 5e-08,"CC(c1ccc2c(c1)OCC2)N1CCN(c2ccc(C(C)(C)O)cn2)CC1 (racemic) [Example 48, 2-(6-(4-(1-(2,3-dihydrobenzofuran-6-yl)ethyl)piperazin-1-yl)pyridin-3-yl)propan-2-ol]"
6,< 5e-08,CC(c1ccc2c(c1)OCC2)N1CCN(c2ccc(S(C)(=O)=O)cn2)CC1 (racemic) [Example 71]
7,2e-07 to 1e-06,"CC(O)c1ccc(N2CCN(C(C)c3ccc4nccnc4c3)CC2)nc1 (racemic) [Example 52, 1-(6-(4-(1-(quinoxalin-6-yl)ethyl)piperazin-1-yl)pyridin-3-yl)ethan-1-ol]"
8,< 5e-08,"CC(c1ccc2scnc2c1)N1CCN(c2ncc(C(=O)N(C)C)cn2)CC1 (racemic) [Example 97, 2-(4-(1-(benzo[d]thiazol-5-yl)ethyl)piperazin-1-yl)-N,N-dimethylpyrimidine-5-carboxamide]"
9,2e-07 to 1e-06,"CC(c1ccc2nccnc2c1)N1CCN(c2ccc(C3(O)CCCCC3)cn2)CC1 (racemic) [Example 60, 1-(6-(4-(1-(quinoxalin-6-yl)ethyl)piperazin-1-yl)pyridin-3-yl)cyclohexan-1-ol]"
10,< 5e-08,"CC(c1ccc2nccnc2c1)N1CCN(c2ncc3c(n2)CCNC3)CC1 (racemic) [Example 8, 2-(4-(1-(quinoxalin-6-yl)ethyl)piperazin-1-yl)-5,6,7,8-tetrahydropyrido [4,3-d] pyrimidine]"
11,5e-08 to 2e-07,"CC(=O)Nc1cnn(C2CCN(C(C)c3ccc4c(c3)OCC4)CC2)c1 (racemic) [Example 25, N-(1-(1-(1-(2,3-dihydrobenzofuran-6-yl)ethyl)piperidin-4-yl)-1H-pyrazol-4-yl)acetamide]"
12,5e-08 to 2e-07,"CC(c1ccc2nccnc2c1)N1CCN(c2ncc(C(O)C(F)(F)F)cn2)CC1 (racemic) [Example 87, 2,2,2-trifluoro-1-(2-(4-(1-(quinoxalin-6-yl)ethyl)piperazin-1-yl)pyrimidin-5-yl)ethan-1-ol]"
13,< 5e-08,"CNC(=O)c1ccnc(N2CCN(C(C)c3ccc4c(c3)OCC4)CC2)n1 (racemic) [Example 103, 2-(4-(1-(2,3-dihydrobenzofuran-6-yl)ethyl)piperazin-1-yl)-N-methylpyrimidine-4-carboxamide]"
14,< 5e-08,"CC(c1ccc2c(c1)OCC2)N1CCN(c2ccc(C(=O)N(C)C)cn2)CC1 (racemic) [Example 63, 6-(4-(1-(2,3-dihydrobenzofuran-6-yl)ethyl)piperazin-1-yl)-N,N-dimethylnicotinamide]"
15,< 5e-08,"CC(O)c1nnc(N2CCN(C(C)c3ccc4c(c3)OCC4)CC2)s1 (racemic) [Example 114, 1-(5-(4-(1-(2,3-dihydrobenzofuran-6-yl)ethyl)piperazin-1-yl)-1,3,4-thiadiazol-2-yl)ethan-1-ol]"

row,Structure (SMILES),IC50 [M]
1,"CC(c1ccc2nccnc2c1)N1CCN(c2ccc(C3(O)CCOC3)cn2)CC1 (racemic) [Example 58, 3-(6-(4-(1-(quinoxalin-6-yl)ethyl)piperazin-1-yl)pyridin-3-yl)tetrahydrofuran-3-ol]",5e-08 to 2e-07
2,CC(=O)Nc1nnc(N2CCN([C@@H](C)c3cnc4cccnc4c3)CC2)s1 [Example 222],5e-08 to 2e-07
3,"Cc1nnc(N2CCN(C(C)c3ccc4nccnc4c3)CC2)s1 (racemic) [Example 116, 2-methyl-5-(4-(1-(quinoxalin-6-yl)ethyl)piperazin-1-yl)-1,3,4-thiadiazolequinoxaline]",2e-07 to 1e-06
4,"CC(=O)Nc1nnc(N2CCN(C(C)c3cnc4cccnc4c3)CC2)s1 (racemic) [Example 111, N-(5-(4-(1-(1,5-naphthyridin-3-yl)ethyl)piperazin-1-yl)-1,3,4-thiadiazol-2-yl)acetamide]",5e-08 to 2e-07
5,"CC(c1ccc2nccnc2c1)N1CCN(c2ccc(=O)[nH]n2)CC1 (single isomer, unassigned) [Example 38, (S)-6-(4-(1-(quinoxalin-6-yl)ethyl)piperazin-1-yl)pyridazin-3(2H)-one or (R)-6-(4-(1-(quinoxalin-6-yl)ethyl)piperazin-1-yl)pyridazin-3(2H)-one]",5e-08 to 2e-07
6,"COC(=O)c1ccc(N2CCN(C(C)c3ccc4nccnc4c3)CC2)nc1 (racemic) [Example 66, Methyl-6-(4-(1-(quinoxalin-6-yl)ethyl)piperazin-1-yl) nicotinate]",5e-08 to 2e-07
7,"CC(c1ccc2nccnc2c1)N1CCN(c2ccc(C(=O)O)cn2)CC1 (racemic) [Example 67, 6-(4-(1-(quinoxalin-6-yl)ethyl)piperazin-1-yl) nicotinic acid]",5e-08 to 2e-07
8,"CC(c1ccc2nccnc2c1)N1CCN(c2ccc(F)nn2)CC1 (racemic) [Example 41, 6-(1-(4-(6-Fluoropyridazin-3-yl)piperazin-1-yl)ethyl)quinoxaline]",2e-07 to 1e-06
9,"CCOC(=O)c1nnc(N2CCN(C(C)c3ccc4c(c3)OCC4)CC2)s1 (racemic) [Example 117, Ethyl 5-(4-(1-(2,3-dihydrobenzofuran-6-yl)ethyl)piperazin-1-yl)-1,3,4-thiadiazole-2-carboxylate]",5e-08 to 2e-07
10,"CC(c1ccc2nccnc2c1)N1CCN(c2nnc(CN(C)C)s2)CC1 (racemic) [Example 125, N,N-dimethyl-1-(5-(4-(1-(quinoxalin-6-yl)ethyl)piperazin-1-yl)-1,3,4-thiadiazol-2-yl)methanamine]",2e-07 to 1e-06
11,"CC(c1ccc2c(c1)OCC2)N1CCC(n2cc(F)cn2)CC1 (racemic) [Example 30, 1-(1-(2,3-dihydrobenzofuran-6-yl)ethyl)-4-(4-fluoro-1H-pyrazol-1-yl)piperidine]",2e-07 to 1e-06
12,"CC(c1ccc2nccnc2c1)N1CCN(c2n[nH]c(=O)s2)CC1 (racemic) [Example 21, 5-(4-(1-(quinoxalin-6-yl)ethyl)piperazin-1-yl)-1,3,4-thiadiazol-2(3H)-one]",5e-08 to 2e-07
13,"CC(c1ccc2nccnc2c1)N1CCN(c2ccc(C(C)(C)O)cn2)CC1 (racemic) [Example 51, 2-(6-(4-(1-(quinoxalin-6-yl)ethyl)piperazin-1-yl)pyridin-3-yl) propan-2-ol]",5e-08 to 2e-07

# From US10556902B2 (Asceneuron SA, priority 2016, dated 2020)
